Assays:
Format in all cases: cell-based, Human papilloma virus
HPV16 = assay: Inhibition of viral replication in cells that maintain HPV16 DNA, viral DNA quantified by real-time PCR; conditions: cells maintaining HPV16 cultured 72 hours with polyamide; vs DMSO control; highest dose tested 10 μM
Source text: (§1) Table 1a lists a number of exemplary polyamides synthesized in accordance with the present invention. The HPLC/MW values given in Table 1b were obtained using low resolution high pressure liquid chromatography/mass spectrometry (LR HPLC/MS), which provides moderate precision masses of single isotopomers rather than average molecular weights or exact masses. Table 2 presents a summary of measured IC50 values of certain of these polyamides against HPV16, HPV18 and HPV31. The IC50 is the concentration of compound required for 50% inhibition of viral replication in vitro. The polyamides were tested in cells that maintain HPV16, HPV18 or HPV31 DNA. Cells maintaining the selected HPV were cultured for 72 hours in the presence of the polyamide. Viral DNA was then quantified using real-time PCR and compared to vehicle (DMSO)-treated control cultures. […] Table 3 presents a summary of measured IC50 and IC90 values of certain of these polyamides against HPV16, HPV18 and HPV31.

HPV31 = assay: Inhibition of viral replication in cells that maintain HPV31 DNA, viral DNA quantified by real-time PCR; conditions: cells maintaining HPV31 cultured 72 hours with polyamide; vs DMSO control; highest dose tested 10 μM
Source text: as §1

HPV18 = assay: Inhibition of viral replication in cells that maintain HPV18 DNA, viral DNA quantified by real-time PCR; conditions: cells maintaining HPV18 cultured 72 hours with polyamide; vs DMSO control; highest dose tested 10 μM
Source text: as §1

SMILES | IC50 (HPV16) [nM] | IC50 (HPV31) [nM] | IC50 (HPV18) [nM]
CN(C)CCCNC(=O)CCNC(=O)c1cc(NC(=O)CCNC(=O)c2cc(NC(=O)c3cc(NC(=O)c4cc(NC(=O)CCNC(=O)c5cc(NC(=O)c6cc(NC(=O)c7cc(NC(=O)[C@H](N)CCNC(=O)c8cc(NC(=O)CCNC(=O)c9cc(NC(=O)c%10cc(NC(=O)CCNC(=O)c%11cc(NC(=O)c%12cc(NC(=O)c%13cc(N=C(N(C)C)N(C)C)cn%13C)cn%12C)cn%11C)cn%10C)cn9C)cn8C)cn7C)cn6C)cn5C)cn4C)cn3C)cn2C)cn1C [NV1077, TMG-PyPyPyβPyPyβPy-γNH2-PyPyPyβPyPyPyβPyβ-Dp] | 95 | 32 | 15
CN(CCCN)CCCNC(=O)CCNC(=O)c1cc(NC(=O)c2cc(NC(=O)c3cc(NC(=O)CCNC(=O)c4cc(NC(=O)c5cc(NC(=O)c6cc(NC(=O)CCNC(=O)c7cc(NC(=O)c8cc(NC(=O)CCCNC(=O)c9cc(NC(=O)c%10cc(NC(=O)CCNC(=O)c%11nc(NC(=O)c%12cc(NC(=O)c%13cc(NC(=O)CCNC(=O)c%14cc(N=C(N(C)C)N(C)C)cn%14C)cn%13C)cn%12C)cn%11C)cn%10C)cn9C)cn8C)cn7C)cn6C)cn5C)cn4C)cn3C)cn2C)cn1C [NV1078, TMG-PyβPyPyImβPyPy-γ-PyPyβPyPyPyβPyPyPyβ-Ta•4TFA] | 32 | 35 | 27
CN(C)CCCNC(=O)CCNC(=O)c1cc(NC(=O)c2cc(NC(=O)c3cc(NC(=O)c4cc(NC(=O)CCNC(=O)c5cc(NC(=O)c6cc(NC(=O)CCCNC(=O)c7cc(NC(=O)c8cc(NC(=O)c9cc(NC(=O)CCNC(=O)c%10cc(NC(=O)c%11cc(N=C(N(C)C)N(C)C)cn%11C)cn%10C)cn9C)cn8C)cn7C)cn6C)cn5C)cn4C)cn3C)cn2C)cn1C [NV1083, TMG-PyPyβPyPyPy-γ-PyPyβPyPyPyPyβ-Dp•2TFA] | 2410 | 3080 | 929
CN(CCCN)CCCNC(=O)CCNC(=O)c1cc(NC(=O)c2cc(NC(=O)c3cc(NC(=O)c4cc(NC(=O)CCNC(=O)c5cc(NC(=O)c6cc(NC(=O)CCCNC(=O)c7cc(NC(=O)c8cc(NC(=O)c9cc(NC(=O)CCNC(=O)c%10cc(NC(=O)c%11cc(N=C(N(C)C)N(C)C)cn%11C)cn%10C)cn9C)cn8C)cn7C)cn6C)cn5C)cn4C)cn3C)cn2C)cn1C [NV1084, TMG-PyPyβPyPyPy-γ-PyPyβPyPyPyPyβ-Ta•3TFA] | 1910 | 7320 | 1040
CN(CCCN)CCCNC(=O)CCNC(=O)c1cc(NC(=O)c2cc(NC(=O)c3cc(NC(=O)CCNC(=O)c4cc(NC(=O)c5cc(NC(=O)c6cc(NC(=O)CCNC(=O)c7cc(NC(=O)c8cc(NC(=O)CCCNC(=O)c9cc(NC(=O)c%10cc(NC(=O)CCNC(=O)c%11nc(NC(=O)c%12cc(NC(=O)c%13cc(NC(=O)CCNC(=O)c%14cc(NC(=O)c%15cc(N=C(N(C)C)N(C)C)cn%15C)cn%14C)cn%13C)cn%12C)cn%11C)cn%10C)cn9C)cn8C)cn7C)cn6C)cn5C)cn4C)cn3C)cn2C)cn1C [NV1085, TMG-PyPyβPyPyImβPyPy-γ-PyPyβPyPyPyβPyPyPyβ-Ta•4TFA] | 29 | 32 | 41
CN(C)CCCNC(=O)CCNC(=O)c1cc(NC(=O)c2cc(NC(=O)c3cc(NC(=O)CCNC(=O)c4cc(NC(=O)c5cc(NC(=O)c6cc(NC(=O)CCNC(=O)c7cc(NC(=O)c8cc(NC(=O)CCCNC(=O)c9cc(NC(=O)c%10cc(NC(=O)CCNC(=O)c%11nc(NC(=O)c%12cc(NC(=O)c%13cc(NC(=O)CCNC(=O)c%14cc(NC(=O)c%15cc(N=C(N(C)C)N(C)C)cn%15C)cn%14C)cn%13C)cn%12C)cn%11C)cn%10C)cn9C)cn8C)cn7C)cn6C)cn5C)cn4C)cn3C)cn2C)cn1C [NV1086, TMG-PyPyβPyPyImβPyPy-γ-PyPyβPyPyPyβPyPyPyβ-Dp•3TFA] | 43 | 16 | 62
CN(C)CCCNC(=O)CCNC(=O)c1cc(NC(=O)CCNC(=O)c2cc(NC(=O)c3cc(NC(=O)c4cc(NC(=O)CCNC(=O)c5cc(NC(=O)c6cc(NC(=O)CCNC(=O)c7cc(NC(=O)CCCNC(=O)c8nc(NC(=O)c9cc(NC(=O)CCNC(=O)c%10cc(NC(=O)c%11cc(NC(=O)CCNC(=O)c%12cc(NC(=O)c%13cc(NC(=O)c%14cc(N=C(N(C)C)N(C)C)cn%14C)cn%13C)cn%12C)cn%11C)cn%10C)cn9C)cn8C)cn7C)cn6C)cn5C)cn4C)cn3C)cn2C)cn1C [NV1088, TMG-PyPyPyβPyPyβPyIm-γ-PyβPyPyβPyPyPyβPyβ-Dp•3TFA] | 20 | 14 | 35
CN(C)CCCNC(=O)CCNC(=O)c1cc(NC(=O)CCNC(=O)c2cc(NC(=O)c3cc(NC(=O)c4cc(NC(=O)CCNC(=O)c5cc(NC(=O)c6cc(NC(=O)CCNC(=O)c7cc(NC(=O)CCCNC(=O)c8nc(NC(=O)c9cc(NC(=O)CCNC(=O)c%10cc(NC(=O)c%11cc(NC(=O)CCNC(=O)c%12cc(NC(=O)c%13cc(N=C(N(C)C)N(C)C)cn%13C)cn%12C)cn%11C)cn%10C)cn9C)cn8C)cn7C)cn6C)cn5C)cn4C)cn3C)cn2C)cn1C [NV1089, TMG-PyPyβPyPyβPyIm-γ-PyβPyPyβPyPyPyβPyβ-Dp•3TFA] | 68 | 46 | 68
CN(CCCN)CCCNC(=O)CCNC(=O)c1cc(NC(=O)CCNC(=O)c2cc(NC(=O)c3cc(NC(=O)c4cc(NC(=O)CCNC(=O)c5cc(NC(=O)c6cc(NC(=O)CCNC(=O)c7cc(NC(=O)CCCNC(=O)c8nc(NC(=O)c9cc(NC(=O)CCNC(=O)c%10cc(NC(=O)c%11cc(NC(=O)CCNC(=O)c%12cc(NC(=O)c%13cc(N=C(N(C)C)N(C)C)cn%13C)cn%12C)cn%11C)cn%10C)cn9C)cn8C)cn7C)cn6C)cn5C)cn4C)cn3C)cn2C)cn1C [NV1090, TMG-PyPyβPyPyβPyIm-γ-PyβPyPyβPyPyPyβPyβ-Ta•4TFA] | 51 | 22 | 53
CN(CCCN)CCCNC(=O)CCNC(=O)c1cc(NC(=O)c2cc(NC(=O)c3cc(NC(=O)CCNC(=O)c4cc(NC(=O)c5cc(NC(=O)c6cc(NC(=O)CCCNC(=O)c7cc(NC(=O)c8cc(NC(=O)CCNC(=O)c9nc(NC(=O)c%10cc(N=C(N(C)C)N(C)C)cn%10C)cn9C)cn8C)cn7C)cn6C)cn5C)cn4C)cn3C)cn2C)cn1C [NV1094, TMG-PyImβPyPy-γ-PyPyPyβPyPyPyβ-Ta•4TFA] | > 10000 | > 10000 | > 10000

Next, values leading:

IC50 (HPV16) [nM] | IC50 (HPV31) [nM] | IC50 (HPV18) [nM] | SMILES
42 | 37 | 17 | CN(C)CCCNC(=O)CCNC(=O)c1cc(NC(=O)CCNC(=O)c2cc(NC(=O)c3cc(NC(=O)c4cc(NC(=O)CCNC(=O)c5cc(NC(=O)c6cc(NC(=O)c7cc(NC(=O)[C@@H](CCNC(=O)c8cc(NC(=O)CCNC(=O)c9cc(NC(=O)c%10cc(NC(=O)CCNC(=O)c%11cc(NC(=O)c%12cc(NC(=O)c%13cc(N=C(N(C)C)N(C)C)cn%13C)cn%12C)cn%11C)cn%10C)cn9C)cn8C)NC(=O)NCCCN(C)C)cn7C)cn6C)cn5C)cn4C)cn3C)cn2C)cn1C [NV1079, TMG-PyPyPyβPyPyβPy-γNHR″-PyPyPyβPyPyPyβPyβ-Dp•3TFA]
53 | 47 | 35 | CN(C)CCCNC(=O)CCNC(=O)c1cc(NC(=O)c2cc(NC(=O)c3cc(NC(=O)CCNC(=O)c4cc(NC(=O)c5cc(NC(=O)c6cc(NC(=O)CCNC(=O)c7cc(NC(=O)c8cc(NC(=O)CCCNC(=O)c9cc(NC(=O)c%10cc(NC(=O)CCNC(=O)c%11nc(NC(=O)c%12cc(NC(=O)c%13cc(NC(=O)CCNC(=O)c%14cc(N=C(N(C)C)N(C)C)cn%14C)cn%13C)cn%12C)cn%11C)cn%10C)cn9C)cn8C)cn7C)cn6C)cn5C)cn4C)cn3C)cn2C)cn1C [NV1080, TMG-PyβPyPyImβPyPy-γ-PyPyβPyPyPyβPyPyPyβ-Dp•3TFA]
> 10000 | > 10000 | > 10000 | CN(C)CCCNC(=O)CCNC(=O)c1cc(NC(=O)c2cc(NC(=O)c3cc(NC(=O)c4cc(NC(=O)CCNC(=O)c5cc(NC(=O)c6cc(NC(=O)CCCNC(=O)c7cc(NC(=O)c8cc(NC(=O)c9cc(NC(=O)CCNC(=O)c%10cc(N=C(N(C)C)N(C)C)cn%10C)cn9C)cn8C)cn7C)cn6C)cn5C)cn4C)cn3C)cn2C)cn1C [NV1081, TMG-PyβPyPyPy-γ-PyPyβPyPyPyPyβ-Dp•2TFA]
> 10000 | > 10000 | > 10000 | CN(CCCN)CCCNC(=O)CCNC(=O)c1cc(NC(=O)c2cc(NC(=O)c3cc(NC(=O)c4cc(NC(=O)CCNC(=O)c5cc(NC(=O)c6cc(NC(=O)CCCNC(=O)c7cc(NC(=O)c8cc(NC(=O)c9cc(NC(=O)CCNC(=O)c%10cc(N=C(N(C)C)N(C)C)cn%10C)cn9C)cn8C)cn7C)cn6C)cn5C)cn4C)cn3C)cn2C)cn1C [NV1082, TMG-PyβPyPyPy-γ-PyPyβPyPyPyPyβ-Ta•3TFA]
24 | 35 | 36 | CN(CCCN)CCCNC(=O)CCNC(=O)c1cc(NC(=O)CCNC(=O)c2cc(NC(=O)c3cc(NC(=O)c4cc(NC(=O)CCNC(=O)c5cc(NC(=O)c6cc(NC(=O)CCNC(=O)c7cc(NC(=O)[C@H](N)CCNC(=O)c8nc(NC(=O)c9cc(NC(=O)CCNC(=O)c%10cc(NC(=O)c%11cc(NC(=O)CCNC(=O)c%12cc(NC(=O)c%13cc(N=C(N(C)C)N(C)C)cn%13C)cn%12C)cn%11C)cn%10C)cn9C)cn8C)cn7C)cn6C)cn5C)cn4C)cn3C)cn2C)cn1C [NV1096, TMG-PyPyβPyPyβPyIm-γNH2-PyβPyPyβPyPyPyβPβ-Ta•5TFA]

Reference: US9133228B2, “Guanidinyl-substituted polyamides useful for treating human papilloma virus” (Nanovir, LLC, priority 2011, dated 2015)
